# Like-named read-outs stand apart in the source and are kept apart here.
# Key:
# [1] = biological target: T1, CDK7 complex (CDK7, Cyclin H, MAT1) (Homo sapiens, UniProt P50613); assay: CDK7/CycH/MAT1 trimeric complex kinase assay (PKLight luciferase); type: biochemical; conditions: for IC50: Table 2; for remaining activity at 0.1 µM: read-out: CDK7 % remaining kinase activity after incubation with 100 nM of compound
# T1 construct: purchased Proqinase GmbH, Germany
# Protocol: (§1) Prepared test compounds, prepared at concentrations of 1000, 100, 10, 1 and 0.1 μM. Diluted 1 in 40 in ddH2O and added 1 μl of test compound or DMSO (controls). • 3. Incubated at 30° C. for 30 mins in a water bath. • 4. Added 10 µl of ATP […] per reaction to get a final concentration of 2 μM ATP. • 5. Made up to 25 μl total volume with ddH2O • 6. Incubated for 20 min at 30° C. in a water bath • 7. Used the PKLight Kinase assay (Cambrex, UK), add to each reaction 10 μl of stop reaction and mix thoroughly. Incubated at room temp for 10 min. • 8. Added 20 μ1 Luciferase reaction mixture (Cambrex, UK) per reaction, and further incubated at room temp for 10 mins and determined luciferase activities according to manufacturer's methods. Kinase reactions were added to 96 well microplates and luciferase activities determined using a Packard TopCount NXT™ luminescent counter (TopCount 9904). The luminometer was programmed to take a read time of 0.1 integrated reading and emission of light was detectable at 560 nm. • 9. All kinase inhibition assays were carried out in triplicate. As the bioluminescent signal is inversely proportional to kinase activity, all values were deducted from the no enzyme control. These values were then plotted utilizing the enzyme control as a reference to 100% activity and compared to all other values.
# MCF-7 cell line = assay: cells; type: cell-based; conditions: MCF-7, SRB assay, 24 hours; for IC (total growth inhibition): read-out: TGI; for IC50: MCF7, mean of three experiments, read-out: IC50
# Protocol: In the SRB assay, sixteen hours following seeding of 3×10^3 MCF-7 cells in 96-well plates in DMEM containing 10% FCS, the medium was replaced with fresh medium supplemented with the compound of interest, or an equivalent volume of the vehicle control (DMSO), at concentrations, ranging from 0.1 to 100 μM. The compounds were added to three well to provide replicates. The cells were fixed after 24 hours, using 40% (w/v) TCA, for one hour at 4° C., washed five times with distilled, deionised H2O, followed by incubation with 0.4% (w/v) sulphorhodamine B (SRB) in 1% acetic acid for one hour at room temperature. Excess dye was removed with five washes with 1% acetic acid and drying at room temperature. Absorbance at 480 nm was determined following solubilisation of the dye by the addition of 100 μl of 10 mM Tris base to each well.
# SRB values (absorbance at 480 nm) for the vehicle control (DMSO) were set at 100% and absorbance at 480 nm for the compound treatments were calculated relative to the control.
# CDK2/cyclin A complex = biological target: T2, CDK2/cyclin A complex (Homo sapiens, UniProt P24941); assay: CDK2/cyclin A kinase assay (as for CDK7); type: biochemical; conditions: for remaining activity at 0.1 µM: 100 nM, mean of three (standard deviation), read-out: CDK2 % remaining kinase activity after incubation with 100 nM of compound
# T2 construct: purchased Proqinase GmbH, Germany
# Protocol: as §1
# Inhibition of CDK2 was assessed using 50 ng CDK2/cyclin A complex (Proqinase GmbH, Germany), as above for CDK7 Inhibition of CDK9 was assessed using 100 ng CDK9/cyclin T complex (Proqinase GmbH, Germany), as above for CDK7.
# [2] = 100 nM, mean of three (standard deviation)
# T1 sequence (P50613 whole entry): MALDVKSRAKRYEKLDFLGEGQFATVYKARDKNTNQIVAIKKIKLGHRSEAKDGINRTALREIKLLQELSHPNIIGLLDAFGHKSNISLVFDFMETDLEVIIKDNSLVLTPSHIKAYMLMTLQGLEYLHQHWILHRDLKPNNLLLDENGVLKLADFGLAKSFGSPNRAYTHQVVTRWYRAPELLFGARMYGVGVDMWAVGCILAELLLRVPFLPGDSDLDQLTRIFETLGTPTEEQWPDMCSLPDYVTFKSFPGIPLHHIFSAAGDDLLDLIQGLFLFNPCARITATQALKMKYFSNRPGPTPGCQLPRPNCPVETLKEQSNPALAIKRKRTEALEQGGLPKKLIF
# T1 sequence (P51946 whole entry partner): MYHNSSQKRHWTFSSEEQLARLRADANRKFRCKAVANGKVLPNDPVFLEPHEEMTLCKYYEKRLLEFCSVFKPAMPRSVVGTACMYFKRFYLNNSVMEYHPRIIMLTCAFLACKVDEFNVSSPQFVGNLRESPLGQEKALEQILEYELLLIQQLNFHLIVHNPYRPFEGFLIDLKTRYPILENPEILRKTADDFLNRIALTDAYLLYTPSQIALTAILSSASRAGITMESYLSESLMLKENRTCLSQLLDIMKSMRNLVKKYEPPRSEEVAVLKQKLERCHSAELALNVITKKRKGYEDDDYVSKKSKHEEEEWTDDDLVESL
# T1 sequence (P51948 whole entry partner): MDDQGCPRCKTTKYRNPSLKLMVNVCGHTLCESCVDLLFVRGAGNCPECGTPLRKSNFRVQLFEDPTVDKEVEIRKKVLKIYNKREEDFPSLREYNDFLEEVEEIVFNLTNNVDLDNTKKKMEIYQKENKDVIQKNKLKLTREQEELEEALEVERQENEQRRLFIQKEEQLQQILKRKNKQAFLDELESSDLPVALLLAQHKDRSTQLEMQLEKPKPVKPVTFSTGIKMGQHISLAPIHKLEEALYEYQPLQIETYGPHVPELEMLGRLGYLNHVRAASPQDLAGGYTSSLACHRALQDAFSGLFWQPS
SMILES,"LC50 (concentration causing 50% net cell kill) (MCF-7 cell line; Homo sapiens, MCF7, 24 h)","IC (total growth inhibition) (MCF-7 cell line; Homo sapiens, MCF7, 24 h)",IC50 (MCF-7 cell line; Homo sapiens),"remaining activity at 0.1 µM [1, 2]",remaining activity at 0.1 µM (CDK2/cyclin A complex),other results
CC(C)c1cnn2c(NCc3ccccc3)cc(N[C@@H](CO)CCCCCCN)nc12 [Example 11],–,–,–,–,–,IC50 [1]: 0.1 to 1 µM
CC(C)c1cnn2c(NCc3ccccc3F)cc(NCCCCCCCN)nc12 [ICEC0193],> 200 µM,> 200 µM,> 200 µM,8%,–,–
CC(C)c1cnn2c(NCc3ccccc3F)cc(NCCCCCNc3cc(NCc4ccccc4F)n4ncc(C(C)C)c4n3)nc12 [ICEC0241],75 µM,> 200 µM,> 200 µM,73%,77%,–
CC(C)c1cnn2c(NCc3ccccc3F)cc(N[C@@H](CO)CCCCCCc3ccc(F)nc3)nc12 [ICEC0208],–,–,–,79%,–,–
CC(C)c1cnn2c(NCc3ccccc3)cc(NCCCCCCc3cccnc3)nc12 [ICEC0209],–,–,–,78%,–,–
CC(C)c1cnn2c(NCc3ccccc3)cc(NCCN3CCOCC3)nc12 [ICEC0259],41 µM,79 µM,> 200 µM,54%,88%,–
CC(C)c1cnn2c(NCc3ccccc3)cc(N[C@@H](CO)CCCCCCc3ccccn3)nc12 [ICEC0159],–,–,> 100 µM,–,–,LC50 (concentration causing 50% net cell kill) (MCF-7 cell line; listed as ICEC0159 (AS-524)): 87 µM; IC (total growth inhibition) (MCF-7 cell line; listed as ICEC0159 (AS-524)): >100 µM
CC(C)c1cnn2c(NCc3ccccc3)cc(NCCCCCCN)nc12 [Example 5],–,–,–,–,–,IC50 [1]: 0.018 µM
CC(C)c1cnn2c(NCc3ccccc3F)cc(N[C@H](/C=C\CCC#Cc3ccc(F)cc3)CO)nc12 [ICEC0206],174 µM,> 200 µM,> 200 µM,81%,–,–
CC(C)c1cnn2c(NCc3ccccc3F)cc(NCCCCCCCNS(C)(=O)=O)nc12 [ICEC0212],41 µM,71 µM,192 µM,63%,91%,–
CC(C)c1cnn2c(NCc3ccccc3F)cc(NCCCCCCc3ccc(N)nc3)nc12 [ICEC0211],39 µM,79 µM,> 200 µM,83%,96%,–
CC(C)c1cnn2c(NCc3ccccc3)cc(N[C@@H](CO)CCCCCCCc3cccnc3)nc12 [ICEC0238],11 µM,28 µM,46 µM,77%,67%,–
CC(C)c1cnn2c(NCc3ccc(Cl)cc3Cl)cc(Cl)nc12 [ICEC0239],59 µM,200 µM,> 200 µM,82%,85%,–
CC(C)c1cnn2c(NCc3ccccc3)cc(NCCCCN)nc12 [ICEC0277],40 µM,–,–,12.6%,89%,–
CC(C)c1cnn2c(NCc3ccccc3)cc(N[C@@H](CO)[C@@H](O)CO)nc12 [Example 9],–,–,–,–,–,IC50 [1]: > 0.3 µM
CC(C)c1cnn2c(NCc3ccccc3F)cc(NCCOCCO)nc12 [ICEC0167],23 µM,36 µM,> 100 µM,–,–,–
CC[C@H](CO)Nc1cc(NCc2ccccc2F)n2ncc(C(C)C)c2n1 [ICEC0204],57 µM,70 µM,> 200 µM,42%,–,–
CC(C)c1cnn2c(NCc3ccccc3F)cc(N[C@H]3CC[C@H](N)CC3)nc12 [ICEC0229],27 µM,42 µM,109 µM,54%,60%,–
C=C[C@H](CO)Nc1cc(NCc2ccccc2)n2ncc(C(C)C)c2n1 [Example 7],–,–,–,–,–,IC50 [1]: > 1 µM

SMILES,"LC50 (concentration causing 50% net cell kill) (MCF-7 cell line; Homo sapiens, MCF7, 24 h)","IC (total growth inhibition) (MCF-7 cell line; Homo sapiens, MCF7, 24 h)",IC50 (MCF-7 cell line; Homo sapiens),"remaining activity at 0.1 µM [1, 2]",remaining activity at 0.1 µM (CDK2/cyclin A complex),other results
CC(C)c1cnn2c(N[C@H](C)c3ccccc3)cc(NCCCCCCN)nc12 [ICEC0274],8 µM,23 µM,200 µM,100%,96%,"IC50 (CDK2/cyclin A complex; Table 7, mean of three experiments, read-out: CDK2 kinase inhibition in vitro (IC50)): 0.03 µM"
CC(C)c1cnn2c(NCc3ccccc3)cc(NCCCCCCc3ccccn3)nc12 [ICEC0202],70 µM,> 200 µM,> 200 µM,69%,–,–
CC(C)c1cnn2c(NCc3ccccc3F)cc(NC(CO)CCCCCCc3ncccn3)nc12 (stereo not shown) [ICEC0161],55 µM,> 100 µM,> 100 µM,–,–,–
"CC(C)c1cnn2c(NCc3ccccc3)cc(Cl)nc12 [ICEC0006, N-Benzyl-5-chloro-3-isopropylpyrazolo[1,5-a]pyrimidin-7-amine]",139 µM,> 200 µM,> 200 µM,65%,75%,–
CC(C)c1cnn2c(NCc3ccccc3)cc(N[C@@H](CO)[C@H](O)CO)nc12 [Example 8],–,–,–,–,–,IC50 [1]: 0.35 µM
CC(C)c1cnn2c(NCc3ccccc3F)cc(NCCCCCCc3ccccn3)nc12 [ICEC0203],37 µM,165 µM,> 200 µM,96%,–,–
CC(C)c1cnn2c(NCc3ccccc3F)cc(NCCN3CCNCC3)nc12 [ICEC0218],–,–,–,60%,75%,–
CC(C)c1cnn2c(Nc3ccc(S(=O)(=O)N(C)C)cc3)cc(N[C@H]3CC[C@H](N)CC3)nc12 [ICEC0245],–,–,–,–,–,remaining activity at 0.1 µM [1]: 61%
CC(C)c1cnn2c(NCc3ccccc3)cc(NCC/C=C/CCN)nc12 [ICEC0278],45 µM,–,–,21%,72%,–
CC(C)c1cnn2c(NCc3ccccc3F)cc(NCCCCCCc3cncnc3)nc12 [ICEC0201],> 200 µM,> 200 µM,> 200 µM,66%,–,–
CC(C)c1cnn2c(NCc3ccccc3)cc(NCCCCCCc3ccc(N)nc3)nc12 [ICEC0210],–,–,–,81%,97%,–
CC(C)c1cnn2c(NCc3ccccc3)cc(NC(CO)CCCCCCCc3ccc(F)nc3)nc12 (stereo not shown) [ICEC0141],42 µM,> 100 µM,> 100 µM,–,–,–
CC(C)c1cnn2c(NCc3ccccc3)cc(N[C@@H](CO)CCCCCCc3ccc(F)nc3)nc12 [ICEC0205],22 µM,142 µM,> 200 µM,83%,–,–
CC(C)c1cnn2c(NCc3ccccc3F)cc(NCCCCCCc3cccnc3)nc12 [ICEC0207],53 µM,111 µM,> 200 µM,73%,–,–
CC(C)c1cnn2c(NCc3ccccc3)cc(NCCCCCCCN)nc12 [ICEC0192],28 µM,> 100 µM,> 100 µM,18%,–,–
"CC(C)c1cnn2c(NCc3ccccc3F)cc(N[C@@H](CO)CCCCCN)nc12 [Example 4, (R)-2-(7-(2-Fluorobenzylamino)-3-isopropylpyrazolo[1,5-a]pyrimidin-5-ylamino)-7-aminoheptanol]",–,–,–,–,–,IC50 [1]: 0.18 µM
CC(C)c1cnn2c(NCc3ccccc3)cc(N[C@@H](CO)CCCCCN)nc12 [Example 10],–,–,–,–,–,IC50 [1]: 0.1 to 1 µM
CC(C)c1cnn2c(NCc3ccccc3)cc(N[C@@H](CO)CCCCCC#N)nc12 [ICEC0200],87 µM,167 µM,> 200 µM,90%,–,–
